The series is described as follows: Precipitation boundary of etidronate in the presence of Ca2+ by NaOH titration. It is filed as physicochemical. Particulars: Ca:etidronate molar ratio 2:1, titration with NaOH. As for the experimental part: Etidronic acid has a molecular weight of 206.03 (Fluka, Switzerland). The precipitation boundary of etidronate in the presence of Ca^2+ was determined by titration and used for choosing the solution conditions suitable for electrolytic deposition (ELD). A series of 50 mL solutions containing etidronate (15, 10, 9, 5, 4, 2.5, 1.9, 1.25, 1.22, 1.15, 1.10, and 0.625 mM) and Ca(NO3)2 of different concentrations, with Ca:etidronate molar ratio all fixed at 2:1, were prepared and titrated with NaOH solutions until the first visual sign of turbidity (end point/the precipitation boundary). The pH and NaOH volume consumption at end points were recorded and the Ca^2+ and etidronate concentrations at this point was calculated using equation (Eq. 3): [formula] where C is the titrate (etidronate or Ca^2+) concentration (mM) at the end point, C0 is the titrate concentration (mM) before titration, and VNaOH is NaOH volume (mL) consumption at the end point of titration.
After the precipitation boundary was established, etidronate 5.0 mM, Ca^2+ 10 mM, and pH 4.50 were chosen as the solution conditions for ELD. […] This volume also provided reasonable space to accommodate the experiment setup, that is, two electrodes and the fixture.

Regarding `CC(O)(P(=O)(O)O)P(=O)(O)O` [etidronate, 1-hydroxy-ethylidene-1,1-diphosphonate], the “Etidronate concentration at which no precipitation could be visually judged” value is recorded as less than 1.15 mM.

Source of the values: US20080011613A1, “Method of electrolytically depositing a pharmaceutical coating onto a conductive osteal implant” (priority 2004, published 2008).
